ChEMBL document CHEMBL4346708, “Synthetic approaches and pharmaceutical applications of chloro-containing molecules for drug discovery: A critical review” (Eur J Med Chem, 2019)

Experiments:
[1] = target: Amyloid-beta precursor protein (Homo sapiens, UniProt P05067); assay: Inhibition of amyloid beta (1 to 42) (unknown origin) aggregation
Erythrocyte = assay: Antiinflammatory activity in human erythrocytes assessed as inhibition of hypotonic solution-induced haemolysis after 10 mins by spectrophotometric analysis; assay type: functional, cell-based
[2] = Anti glycation activity assessed as inhibition of BSA glycation after 7 days in presence of glucose by spectrofluorimetry assay; assay type: functional
Alpha glucosidase = Alpha glucosidase (Homo sapiens, UniProt O43451+P10253+P14410+Q2M2H8); assay: Inhibition of alpha-glucosidase (unknown origin) using p-nitrophenyl-a-d-glucopyranoside as substrate preincubated for 5 mins followed by substrate addition measured after 5 mins by spectrophotometric analysis; assay type: protein assay
[3] = Inhibition of porcine pancreatic alpha-amlyase after 10 mins; design: species or system Sus scrofa
[4] = Antioxidant activity assessed as DPPH radical scavenging activity after 30 mins; assay type: functional

Amyloid-beta precursor protein, sequence (P05067 whole entry): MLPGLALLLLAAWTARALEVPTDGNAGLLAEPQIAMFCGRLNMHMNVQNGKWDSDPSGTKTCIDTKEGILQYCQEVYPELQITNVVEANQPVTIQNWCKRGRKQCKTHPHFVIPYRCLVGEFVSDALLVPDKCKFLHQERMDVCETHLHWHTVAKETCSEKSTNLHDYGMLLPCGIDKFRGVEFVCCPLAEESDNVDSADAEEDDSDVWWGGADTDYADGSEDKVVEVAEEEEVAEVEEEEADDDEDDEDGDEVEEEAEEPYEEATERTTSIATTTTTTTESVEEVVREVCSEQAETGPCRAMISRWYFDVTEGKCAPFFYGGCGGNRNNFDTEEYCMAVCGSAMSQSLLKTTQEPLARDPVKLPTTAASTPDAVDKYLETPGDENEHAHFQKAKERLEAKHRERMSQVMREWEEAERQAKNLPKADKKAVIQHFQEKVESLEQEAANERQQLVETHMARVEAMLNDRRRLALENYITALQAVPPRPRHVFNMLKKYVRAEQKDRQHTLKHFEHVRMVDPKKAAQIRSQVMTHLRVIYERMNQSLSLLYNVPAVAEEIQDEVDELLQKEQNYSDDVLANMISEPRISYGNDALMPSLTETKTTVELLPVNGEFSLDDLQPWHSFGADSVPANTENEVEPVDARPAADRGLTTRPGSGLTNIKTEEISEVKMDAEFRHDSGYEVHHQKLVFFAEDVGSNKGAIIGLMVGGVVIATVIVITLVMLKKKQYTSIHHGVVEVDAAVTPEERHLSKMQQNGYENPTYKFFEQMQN

O=c1c2c(F)cccc2[se]n1-c1cc(Cl)c(O)c2ncccc12
IC50 [1]: 9.6 µM

CCCc1nc(C(C)(C)O)c(C(=O)N/N=C/c2ccc(Cl)cc2Cl)[nH]1
IC50 (Erythrocyte): 46 µM

Oc1ccc(-c2nc3ncc(Cl)cc3[nH]2)c(O)c1
IC50 [2]: 240 µM

Clc1ccc(-c2nnc(/N=C/c3ccc(Cl)cc3Cl)s2)cc1
IC50 (Alpha glucosidase): 4.7 µM

O=C(NNC(=S)Nc1ccc(F)cc1)c1cc2cc(Cl)cnc2[nH]1
IC50 [3]: 2.03 µM

O=C(NNC(=S)Nc1ccccc1Cl)c1cc2cc(Cl)ccc2[nH]1
IC50 [3]: 2.1 µM

Oc1ccc(O)c(-c2nc3ncc(Cl)cc3[nH]2)c1
IC50 [4]: 72.5 µM
